# System: not given
# Test: not given
# Details: not given
row,melting point,SMILES
1,~ 145 °C (dec.),"CCN(CC)CC=CC(=O)Nc1cc2c(Nc3ccc(F)c(Cl)c3)ncnc2cc1OCC1CC1 [Example 3, 4-[(3-Chloro-4-fluorophenyl)amino]-6-{[4-(N,N-diethylamino)-1-oxo-2-buten-1-yl]amino}-7-cyclopropylmethoxyquinazoline]"

# Target: T1, human EGF-R (Homo sapiens, UniProt P00533)
# T1 construct: expressed in transfected cells; host or cells: F/L-HERc cells (murine IL-3-dependent FDC-P1 line transduced with LXSN retroviral vector carrying human EGF-R cDNA; packaging line GP+E86)
# T1 sequence (P00533 25-1210): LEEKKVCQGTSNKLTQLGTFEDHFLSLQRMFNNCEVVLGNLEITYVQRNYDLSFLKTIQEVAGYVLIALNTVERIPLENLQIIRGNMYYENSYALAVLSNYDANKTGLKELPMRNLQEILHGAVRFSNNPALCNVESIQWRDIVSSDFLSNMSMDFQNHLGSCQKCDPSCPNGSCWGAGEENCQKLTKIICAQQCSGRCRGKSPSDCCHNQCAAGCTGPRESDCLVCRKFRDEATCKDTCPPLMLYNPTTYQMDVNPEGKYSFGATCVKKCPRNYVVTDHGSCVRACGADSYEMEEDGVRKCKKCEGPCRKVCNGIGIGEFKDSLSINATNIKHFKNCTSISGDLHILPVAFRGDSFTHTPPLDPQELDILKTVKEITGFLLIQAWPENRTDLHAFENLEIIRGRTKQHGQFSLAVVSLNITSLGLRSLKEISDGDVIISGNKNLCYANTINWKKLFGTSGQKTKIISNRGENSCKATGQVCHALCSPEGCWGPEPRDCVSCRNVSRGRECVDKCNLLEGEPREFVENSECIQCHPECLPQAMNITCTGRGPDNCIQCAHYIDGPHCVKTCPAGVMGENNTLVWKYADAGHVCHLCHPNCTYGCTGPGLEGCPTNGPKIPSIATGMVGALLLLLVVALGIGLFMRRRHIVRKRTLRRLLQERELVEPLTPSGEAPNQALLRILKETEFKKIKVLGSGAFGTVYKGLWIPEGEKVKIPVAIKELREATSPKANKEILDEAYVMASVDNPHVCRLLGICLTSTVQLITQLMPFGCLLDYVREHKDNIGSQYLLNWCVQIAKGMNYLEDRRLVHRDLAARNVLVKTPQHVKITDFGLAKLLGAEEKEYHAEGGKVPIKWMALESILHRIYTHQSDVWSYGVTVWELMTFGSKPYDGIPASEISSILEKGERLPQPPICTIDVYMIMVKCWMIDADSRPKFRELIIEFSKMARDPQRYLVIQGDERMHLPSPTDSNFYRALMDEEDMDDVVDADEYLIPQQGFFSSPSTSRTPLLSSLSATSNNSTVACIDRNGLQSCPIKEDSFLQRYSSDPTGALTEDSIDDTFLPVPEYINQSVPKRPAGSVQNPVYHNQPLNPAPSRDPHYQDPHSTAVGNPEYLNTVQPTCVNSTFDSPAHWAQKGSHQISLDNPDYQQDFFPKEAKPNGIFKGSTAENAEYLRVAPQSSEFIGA
# Test: Inhibition of EGF-dependent proliferation of F/L-HERc cells (Cell Titer 96 assay)
# Type: cell-based
# Details: F/L-HERc cells (murine IL-3-dependent line expressing human EGF-R), stimulated with EGF 20 ng/ml, 48 hours
# Excerpt: A cell line of murine origin dependent on interleukin-3-(IL-3) which was genetically modified to express functional human EGF-R was used here. The proliferation of these cells known as F/L-HERc can therefore be stimulated either by murine IL-3 or by EGF (cf. T. von Rüden et al., EMBO J. 7, 2749–2756 (1988) and J. H Pierce et al., Science 239, 628–631 (1988)).
# The starting material used for the F/L-HERc cells was the cell line FDC-P1, the production of which has been described by T. M. Dexter et al., J. Exp. Med. 152, 1036–1047 (1980). Alternatively, however, other growth-factor-dependent cells may also be used (cf., for example, J. H. Pierce et al., Science 239, 628–631 (1988); H. Shibuya et al., Cell 70, 57–67 (1992); and W. S. Alexander et al., EMBO J. 10, 3683–3691 (1991)). For expressing the human EGF-R cDNA (cf. Ullrich, A. et al. in Nature 309, 418–425 (1984)) recombinant retroviruses were used as described by T. von Rüden et al., EMBO J. 7, 2749–2756 (1988), except that the retroviral vector LXSN (cf. A. D. Miller et al., BioTechniques 7, 980–990 (1989)) was used for the expression of the EGF-R cDNA and the line GP+E86 (cf. D. Markowitz et al., J. Virol. 62, 1120–1124 (1988)) was used as the packaging cell.
# F/L-HERc cells were cultivated in RPMI/1640 medium (BioWhittaker), supplemented with 10% fetal calf serum (FCS, Boehringer Mannheim), 2 mM glutamine (BioWhittaker), standard antibiotics and 20 ng/ml of human EGF (Promega), at 37° C. and 5% CO2. In order to investigate the inhibitory activity of the compounds according to the invention, 1.5×10^4 cells per well were cultivated in triplicate in 96-well dishes in the above medium (200 μl), the cell proliferation being stimulated with either EGF (20 ng/ml) or murine IL-3. The IL-3 used was obtained from culture supernatants of the cell line X63/0 mIL-3 (cf. H. Karasuyama et al., Eur. J. Immunol. 18, 97–104 (1988)). The compounds according to the invention were dissolved in 100% dimethylsulfoxide (DMSO) and added to the cultures in various dilutions, the maximum DMSO concentration being 1%. The cultures were incubated for 48 hours at 37° C.
# In order to determine the inhibitory activity of the compounds according to the invention the relative cell number was measured in O.D. units using the Cell Titer 96™ Aqueous Non-Radioactive Cell Proliferation Assay (Promega). The relative cell number was calculated as a percentage of the control (F/LHERc cells without inhibitor) and the concentration of active substance which inhibits the proliferation of the cells by 50% (IC50) was derived therefrom.
row,SMILES,IC50 [nM]
1,"O=C(C=CCN1CCOCC1)Nc1cc2c(Nc3ccc(F)c(Cl)c3)ncnc2cc1OCC1CC1 [3(1), 4-[(3-Chloro-4-fluorophenyl)amino]-6-{[4-(morpholin-4-yl)-1-oxo-2-buten-1-yl]amino}-7-cyclopropylmethoxyquinazoline]",0.2
2,"C=CC(=O)Nc1cc2c(Nc3ccc(F)c(Cl)c3)ncnc2cc1OCCCC1CCN(C)CC1 [1(7), 4-[(3-Chloro-4-fluorophenyl)amino]-7-[3-(1-methylpiperidin-4-yl)propyloxy]-6-[(vinylcarbonyl)amino]quinazoline]",< 0.5
3,"CCN(CC)CC=CC(=O)Nc1cc2c(Nc3ccc(F)c(Cl)c3)ncnc2cc1OCC1CC1 [Example 3, 4-[(3-Chloro-4-fluorophenyl)amino]-6-{[4-(N,N-diethylamino)-1-oxo-2-buten-1-yl]amino}-7-cyclopropylmethoxyquinazoline]",5

# Results, then the molecule that gave them:
row,IC50 [nM],SMILES
1,0.35,"CC#CC(=O)Nc1cc2c(Nc3cccc(Br)c3)ncnc2cc1OCCCC1CCN(C)CC1 [2(3), 4-[(3-Bromophenyl)amino]-7-[3-(1-methylpiperidin-4-yl)propyloxy]-6-[(1-oxo-2-butyn-1-yl)amino]quinazoline]"
2,< 0.35,"C=CC(=O)Nc1cc2c(Nc3cccc(Br)c3)ncnc2cc1OCCCC1CCN(C)CC1 [Example 1, 4-[(3-Bromophenyl)amino]-7-[3-(1-methylpiperidin-4-yl)propyloxy]-6-[(vinylcarbonyl)amino]quinazoline]"

# From US7220750B2, “Bicyclic heterocycles, pharmaceutical compositions containing these compounds, their use and processes for preparing them” (Boehringer Ingelheim Pharma GmbH & Co. KG, priority 1999, dated 2007)
